Results published in ChEMBL document CHEMBL1201862, “PubChem BioAssay data set” (2004).
Activity calls are given as the source filed them.

Columns and labels:
[1] = target: T1, Neuropeptide Y receptor type 1 (Homo sapiens, UniProt P25929); test: Fluorescence-based counterscreen for potentiators or agonists of NPY-Y2: cell-based high-throughput dose response assay for potentiators or agonists of NPY-Y1.; format: functional
T1 sequence (P25929 whole entry): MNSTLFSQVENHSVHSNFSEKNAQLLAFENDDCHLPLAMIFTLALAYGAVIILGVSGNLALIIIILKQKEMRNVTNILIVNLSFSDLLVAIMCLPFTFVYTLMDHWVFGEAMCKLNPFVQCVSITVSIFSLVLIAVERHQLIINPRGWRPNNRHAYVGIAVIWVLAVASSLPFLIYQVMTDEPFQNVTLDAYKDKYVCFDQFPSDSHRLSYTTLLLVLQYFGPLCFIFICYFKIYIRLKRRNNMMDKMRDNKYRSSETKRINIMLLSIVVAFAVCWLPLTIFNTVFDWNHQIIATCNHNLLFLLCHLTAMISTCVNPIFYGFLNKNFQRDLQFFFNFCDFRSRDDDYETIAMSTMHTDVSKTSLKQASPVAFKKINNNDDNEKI

[2] = Luminescent dose response cell-based high throughput screening assay for inhibitors of the Janus kinase 2 mutant JAK2V617F. [Related pubchem assays: 1446 (Primary screen.), 1521 (Confirmation assay.), 1486 (Counter screen.)]; format: functional
[3] = NIH-3T3 fibroblast cytotoxicity, dose response, cytotoxicity control, cell-based, fluorescence, Alamar Blue, secondary assay (AID 2327); format: functional;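 further: NIH-3T3 mouse fibroblasts cultured with fluconazole at 8 µg/mL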
[4] = target: T2, RNA-binding protein pos-1 (Caenorhabditis elegans, UniProt G5EF15); test: disruptors of C. elegans POS-1 RNA interaction – biochemical, fluorescence polarization, dose response (AID 1964);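 further: purified POS-1 fused to maltose binding protein made in E. coli; potency of compounds blocking POS-1 binding to fluorescent RNA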
T2 sequence (G5EF15 whole entry): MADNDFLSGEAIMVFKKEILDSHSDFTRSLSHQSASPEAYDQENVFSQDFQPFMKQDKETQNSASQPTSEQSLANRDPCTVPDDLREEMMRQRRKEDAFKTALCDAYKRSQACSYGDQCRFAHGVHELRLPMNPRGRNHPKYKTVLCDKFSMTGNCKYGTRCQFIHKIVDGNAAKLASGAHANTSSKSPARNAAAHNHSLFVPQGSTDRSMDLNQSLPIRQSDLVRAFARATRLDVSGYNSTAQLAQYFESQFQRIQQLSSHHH

HEK293 = test: Fluorescence-based counterscreen for potentiators or agonists of NPY-Y2: cell-based high-throughput dose response assay to identify inhibitors of cyclic nucleotide gated ion channel (CNGC) activity. In this assay, the parental HEK293 cell line transfected with a cyclic-nucleotide gated ion channel (CNGC)-based cAMP sensor is used to measure inhibition of isoproterenol-induced CNGC activity by test compound.; format: functional; settings: Homo sapiens;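 further: stimulus is 1 µM isoproterenol at EC100 plus PDE inhibitor Ro 20-1724 at 25 µM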
[5] = target: T3, Neuropeptide Y receptor type 2 (Homo sapiens, UniProt P49146); test: Fluorescence-based cell-based high-throughput dose response assay for agonists of NPY-Y2. [Related pubchem assays: 1703 (Screening assay (CNGC inhibitors).), 1359 (Screening assay (NPY-Y2 potentiators or agonists).), 1304 (Screening assay (NPY-Y1 potentiators or agonists).), 1710 (Screening assay (NPY-Y2 agonists).), 1791 (Summary AID.)]; format: functional
T3 sequence (P49146 whole entry): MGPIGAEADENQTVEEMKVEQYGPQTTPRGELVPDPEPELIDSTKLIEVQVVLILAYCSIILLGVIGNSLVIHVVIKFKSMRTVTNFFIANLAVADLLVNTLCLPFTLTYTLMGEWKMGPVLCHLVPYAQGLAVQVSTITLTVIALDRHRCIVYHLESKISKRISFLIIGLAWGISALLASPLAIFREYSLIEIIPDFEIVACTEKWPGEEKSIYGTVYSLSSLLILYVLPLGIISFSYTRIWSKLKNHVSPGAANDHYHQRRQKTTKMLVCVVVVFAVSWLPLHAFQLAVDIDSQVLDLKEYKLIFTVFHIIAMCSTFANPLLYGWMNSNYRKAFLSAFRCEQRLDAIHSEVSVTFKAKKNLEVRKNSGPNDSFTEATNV

[6] = target: T4, Zinc finger protein mex-5 (Caenorhabditis elegans, UniProt Q9XUB2); test: potency of MEX-5 RNA-binding blockers – biochemical, C. elegans, fluorescence polarization, dose response (AID 1960)
T4 sequence (Q9XUB2 whole entry): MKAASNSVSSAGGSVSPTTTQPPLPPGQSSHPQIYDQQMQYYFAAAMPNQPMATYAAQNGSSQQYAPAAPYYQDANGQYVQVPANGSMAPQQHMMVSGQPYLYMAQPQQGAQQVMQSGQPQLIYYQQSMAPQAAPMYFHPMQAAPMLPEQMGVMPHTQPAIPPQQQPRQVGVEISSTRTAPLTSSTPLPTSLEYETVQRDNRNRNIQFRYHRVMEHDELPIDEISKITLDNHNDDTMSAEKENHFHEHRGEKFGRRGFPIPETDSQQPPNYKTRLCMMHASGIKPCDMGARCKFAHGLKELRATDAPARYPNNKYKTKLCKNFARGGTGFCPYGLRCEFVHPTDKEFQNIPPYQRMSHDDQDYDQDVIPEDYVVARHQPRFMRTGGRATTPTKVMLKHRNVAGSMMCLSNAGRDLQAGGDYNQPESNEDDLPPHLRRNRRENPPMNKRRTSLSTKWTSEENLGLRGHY

[7] = fluconazole-exposed Candida albicans growth modulators – fluorescence, retest, confirmation (AID 2467); format: functional, cell-based
[8] = target: T3, Neuropeptide Y receptor type 2; test: Fluorescence-based cell-based high-throughput dose response assay for potentiators or agonists of NPY-Y2. [Related pubchem assays: 1539 (Screening assay (NPY-Y2 potentiators or agonists).), 1703 (Screening assay (CNGC inhibitors).), 1359 (Screening assay (NPY-Y2 potentiators or agonists).), 1304 (Screening assay (NPY-Y1 potentiators or agonists).) …; format: functional
[9] = target: T1, Neuropeptide Y receptor type 1; test: Fluorescence-based counterscreen for agonists of NPY-Y2: cell-based high-throughput dose response assay for agonists of NPY-Y1.; format: functional
Nonstructural protein 1 = Nonstructural protein 1 (Influenza A virus, UniProt Q194T2); format: functional, Influenza A virus (A/California/07/2009(H1N1))
Nonstructural protein 1, sequence (Q194T2 whole entry): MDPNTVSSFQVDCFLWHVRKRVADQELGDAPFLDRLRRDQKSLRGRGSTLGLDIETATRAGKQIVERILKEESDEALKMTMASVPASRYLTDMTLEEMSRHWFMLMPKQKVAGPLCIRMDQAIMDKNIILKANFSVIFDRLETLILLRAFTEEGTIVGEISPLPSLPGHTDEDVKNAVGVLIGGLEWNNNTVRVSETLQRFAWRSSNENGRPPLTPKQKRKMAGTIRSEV

[10] = target: T5, Histone-lysine N-methyltransferase NSD2 (Homo sapiens, UniProt O96028); format: biochemical
T5 sequence (O96028 whole entry): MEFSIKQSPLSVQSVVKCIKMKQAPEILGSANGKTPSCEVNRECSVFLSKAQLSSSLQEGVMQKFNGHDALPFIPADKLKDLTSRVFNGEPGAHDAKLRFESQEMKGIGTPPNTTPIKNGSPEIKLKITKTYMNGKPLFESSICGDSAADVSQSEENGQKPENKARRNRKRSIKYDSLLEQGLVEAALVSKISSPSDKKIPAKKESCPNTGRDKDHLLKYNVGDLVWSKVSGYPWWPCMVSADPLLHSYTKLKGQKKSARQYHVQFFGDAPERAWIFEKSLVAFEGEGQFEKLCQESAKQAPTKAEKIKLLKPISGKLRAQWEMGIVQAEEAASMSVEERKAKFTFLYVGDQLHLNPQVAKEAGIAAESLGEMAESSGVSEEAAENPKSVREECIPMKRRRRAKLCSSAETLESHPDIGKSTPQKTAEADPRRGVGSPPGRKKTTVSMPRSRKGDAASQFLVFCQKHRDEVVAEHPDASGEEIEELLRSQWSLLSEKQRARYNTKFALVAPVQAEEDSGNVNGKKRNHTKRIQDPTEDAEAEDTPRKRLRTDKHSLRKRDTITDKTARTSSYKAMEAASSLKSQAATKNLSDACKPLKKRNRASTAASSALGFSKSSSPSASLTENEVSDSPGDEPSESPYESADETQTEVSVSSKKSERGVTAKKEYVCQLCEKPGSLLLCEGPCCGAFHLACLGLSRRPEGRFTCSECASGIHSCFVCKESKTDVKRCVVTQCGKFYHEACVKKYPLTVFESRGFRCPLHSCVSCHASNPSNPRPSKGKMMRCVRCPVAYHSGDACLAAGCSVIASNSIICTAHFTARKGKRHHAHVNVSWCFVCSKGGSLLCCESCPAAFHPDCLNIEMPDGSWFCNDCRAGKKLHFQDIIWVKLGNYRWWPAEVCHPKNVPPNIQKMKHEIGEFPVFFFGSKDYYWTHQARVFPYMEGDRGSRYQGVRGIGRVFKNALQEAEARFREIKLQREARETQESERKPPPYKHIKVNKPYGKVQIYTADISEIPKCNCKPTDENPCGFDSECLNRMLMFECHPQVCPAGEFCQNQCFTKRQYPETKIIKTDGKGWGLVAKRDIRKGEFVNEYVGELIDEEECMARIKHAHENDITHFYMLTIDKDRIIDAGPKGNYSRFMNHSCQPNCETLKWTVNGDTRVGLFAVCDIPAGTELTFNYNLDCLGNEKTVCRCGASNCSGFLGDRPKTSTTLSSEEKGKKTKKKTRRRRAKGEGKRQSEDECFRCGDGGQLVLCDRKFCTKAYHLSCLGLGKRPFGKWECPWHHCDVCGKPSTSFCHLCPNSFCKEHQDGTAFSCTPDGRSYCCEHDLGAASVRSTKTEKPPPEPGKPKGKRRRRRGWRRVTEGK

Compound: O=C1/C(=C/c2ccc(O)c(O)c2)SC(=S)N1Nc1ccccc1
- EC50 [1]: > 35.4 µM (not active)
- IC50 [2]: 1.53 µM (active)
- EC50 [3]: 41.6 µM (active)
- EC50 [4]: 39.2 µM (active)
- EC50 (HEK293): > 35.4 µM (not active)
- EC50 [5]: > 35.4 µM (not active)
- EC50 [6]: 16.2 µM (active)
- EC50 [7]: > 38 µM (not active)
- EC50 [8]: 26.6 µM (not active)
- EC50 [9]: > 11.8 µM (not active)
- IC50 (Nonstructural protein 1): 31.6 µM (active)
- AC50 [10]: 1.49 µM (active)
